Experimental data taken from patent US20160244802A1, “Protein Demethylases Comprising a JMJC Domain” (The University of North Carolina at Chapel Hill, priority 2005, published 2016).

What was measured:
[1] = tested on: AR target genes PSA, NKX3.1 and TMPRSS22; assay: Quantitative RT-PCR of AR target genes in LNCaP cells; format: cell-based; conditions: 50 nM, 8 hours
Experimental: (§1) Recombinant JMJD1A was mixed with in vitro translated […] AR in the absence or presence of R1881 (100 nM). After immunoprecipitation with anti-JHDM2A antibody, AR was detected by autoradiography. […] LNCaP cells were cultured in charcoal-stripped serum medium for three days and then treated without or with R1881 (50 nM) for 1 hour before being processed for ChIP analysis. […] LNCaP cells were transfected with a scramble (siCON), siJHDM2A or siLSD1 as indicated. Tubulin served as a loading control. […] The cells were treated as in FIG. 14B except the cells were collected for RNA isolation 8 hours after the R1881 treatment. […] The LNCaP cells were treated with siJHDM2A or siCON for three days and then 50 nM R1881 for 1 hour before processed for ChIP assays using antibodies as indicated.
For ChIP assay in LNCaP cells, the cells were cultured in charcoal-stripped serum medium for three days before treatment with R1881 (50 nM) for 1 hour. […]
To directly test and compare the role of JHDM2A and LSD1 in hormone-dependent transcriptional activation, we used siRNA to knockdown JHDM2A and LSD1 in LNCaP cells (FIG. 14C). We then evaluated the effects of JHDM2A or LSD1 knockdown on the hormone induced activation of three AR target genes, PSA, NKX3.1 and TMPRSS22, by quantitative RT-PCR. […]

[2] = tested on: PSA enhancer and NKX3.1 gene; assay: ChIP assay in LNCaP cells; format: cell-based; conditions: 50 nM, 1 hour
Experimental: as §1
For ChIP assay in LNCaP cells, the cells were cultured in charcoal-stripped serum medium for three days before treatment with R1881 (50 nM) for 1 hour. The ChIP assay was performed essentially as previously described (Yoon, et al. (2005) Mol. Cell Biol. 25:324-335). Primers for RT-PCR analysis of the PSA mRNA were 5′-GCCCACCCAGGAGCCAGCACT-3′ (SEQ ID NO:27) and 5′-GGCCCCCAGAATCACCCGAGCAG-3′ (SEQ ID NO:28).

[3] = tested on: modified histone H3 peptide substrates (H3K4 me3, me2, me1); assay: Histone demethylase assay with modified histone H3 peptide substrates, mass spectrometry; format: biochemical

Molecule	transcription from AR target genes [1]	binding of the AR to the PSA enhancer [2]	removal of the me1 modification state ([3]; H3K4me1 peptide, in vitro)	demethylation of the modified substrate ([3]; H3K4me3 and me2 peptides, recombinant Flag-RBP2)
C[C@]1(O)CC[C@H]2[C@@H]3CCC4=CC(=O)CCC4=C3C=C[C@@]21C [R1881]	robustly activated transcription	strong binding		
RBP2: Flag-tagged JmjC domain H3K4 demethylase expressed in SF9 cells by baculovirus, affinity purified			failed to catalyze removal	80-90%
